Tested on: db/db mice
Experiment: Test for activity of decreasing plasma glucose using db/db mice
Format: in vivo
Conditions: female db/db mice, test compound mixed in powdered chow (0.01%) for 14 days, dose 3.2 mg/kg; difference between db/db and +/+ mouse groups defined as 100%
Source text: Test Example: Test for Activity of Decreasing Plasma Glucose Using db/db Mice
3-(1-bromonaphthalen-2-ylmethyl)-5-((5-chloro-2-thiophenylsulfonyl)carbamoyl)-2-methylindole (Compound (23))
Five-week-old female mice [C57BL/KsJ-dbm db+/db+, C57BL/KsJ-dbm +m/+m (Jackson Laboratory)] were purchased, and were kept for 2 to 3 weeks. Then, these mice were used in the test.
A test compound was mixed with a powdered chow (CE-2, made by Nippon Clea) using a mortar. The mixing ratio was 0.01%. The mixed chow was changed twice a week for each group. The feed amount and the remaining amount were recorded, and the intake was calculated from the difference therebetween.
The female db/db mice were grouped according to the body weight, the plasma glucose, and the plasma triglyceride concentrations. […] Plasma glucose, triglyceride, and insulin concentrations were measured on day 0 and day 14 as well as plasma glucose and triglyceride concentrations on day 7. The body weight was measured on day 0, day 7, and day 14. […]
The plasma glucose was measured by a glucose oxidase method (Glucose CII-Test Wako made by Wako Pure Chemical Industries, Ltd.) using from 10 to 15 μl of plasma. The plasma triglyceride concentration was measured by a GPO-p-chlorophenol method (Triglyceride G-Test Wako made by Wako Pure Chemical Industries, Ltd.) or a GPO-DAOS method (Triglyceride E-Test Wako) using from 10 to 15 μl of plasma. […]

Cc1[nH]c2ccc(C(=O)NS(=O)(=O)c3ccc(Cl)s3)cc2c1Cc1ccc2ccccc2c1Br [Compound (23), 3-((1-bromonaphthalen-2-yl)methyl)-5-((5-chloro-2-thiophenesulfonyl)carbamoyl)-2-methylindole]
TG concentration-decreasing activity (rate of decrease in plasma triglyceride): 9%
plasma glucose decreasing activity (rate of decrease in plasma glucose): 19%

— patent publication US20050171185A1, “Indole derivatives” (Fujisawa Pharmaceutical Co., Ltd., a Japanese corporation, priority 1998, published 2005)
